Reference: patent publication US11781101B2, “3D-printed models of biological microenvironments” (Regents of the University of Minnesota, priority 2018, dated 2023)

System: HUVEC-lined conduit
Details: laser-triggered release of VEGF from capsules on one side of conduit
Description: To mimic the beginning of a metastatic cascade in the context of cell types relevant to the tumor microenvironment, a vascularized 3D-printed culture chamber was configured to provide spatiotemporal control over both tumor cell invasion and angiogenesis as illustrated in FIG. 28. The angiogenic mediator VEGF was introduced to promote and direct the formation of a vascular network from a pre-existing uniaxial conduit.

VEGF
endothelial sprouting from the conduit: numerous endothelial cells sprouted from the conduit
